Here are results for 2 molecules from patent US20250221981A1, “MAT2A INHIBITOR AND/OR TSG101 INHIBITOR FOR USE IN ANTIVIRAL THERAPY” (CAMBRIDGE ENTERPRISE LIMITED, priority 2022, published 2025).

One test deals with BKPyV. Kind of test: BKPyV infection of RPTE/TERT1 cells, immunofluorescence count of LTAg / VP1 positive cells. The format is cell-based, BK polyomavirus. The following applies: 48 hpi; for early gene (LTAg) expression, LTAg positive cells as a proportion of DAPI-positive cells / late gene (VP1) expression, VP1 positive cells as a proportion of DAPI-positive cells: particularly at double proliferative IC50 (20 µM PF-9366, 514 nM AG-270), MOI 1. How it is done: (A) Effect of PF-9366 on viral early gene expression: Cells were infected with BKPyV (MOI 1) in media containing appropriate drug concentrations. At 1 hpi infectious media was removed, cells were washed and fresh media with appropriate drug concentrations was added. Cells were formaldehyde fixed at 48 hpi and stained for DAPI and LTAg expression and detected by fluorescence microscopy. The number of infected LTAg positive cells were recorded, normalized to cell number. n=3.
Effect of drug treatment on cellular replication and survival and viral early gene expression: Cells were infected with BKPyV (MOI 1) in media containing appropriate drug concentrations. At 1 hpi infectious media was removed, cells were washed and fresh media with appropriate drug concentrations was added. Cells were formaldehyde fixed at 48 hpi and stained for nuclear DAPI and LTAg expression, then detected by fluorescence microscopy. The number of cells per well were determined through DAPI analysis (i) Effect of drug treatment on viral early and late gene expression: The number of infected cells were determined by LTAg (early gene) and VP1 (late gene) expression (ii).
Treatment began 3 hours prior to infection and continued throughout infection. Cells were infected with BKPyV (MOI 1), at 1 hpi cells were washed with PBS and replenished with fresh drug treated media. At 48 hpi cells were fixed with 3% formaldehyde and stained for LTAg expression, and the nuclei counterstained with DAPI. The number of LTAg positive cells were counted and normalised to the total cell number in each condition, and the fold change in proportion of LTAg positive cells for each concentration of PF-9366 was normalised to untreated control.
To investigate whether MAT2A inhibition by a structurally different inhibitor to PF-9366 could cause similar effects, the effect of AG-270 on BKPyV infection was investigated. As above, drugs were used to treat cells from 3 hours prior to infection. Drug concentrations used were the IC50 value defined by inhibition of cell proliferation (proliferative IC50) or double the proliferative IC50, and DMSO was used as a control. Cells were infected with BKPyV (MOI 1), at 1 hpi cells were washed and fresh drug-containing media was added. At 48 hpi cells were fixed in 3% formaldehyde and stained for DAPI, viral early gene LTAg, and viral late gene VP1. The number of cells in each condition were counted and normalised to DMSO treated cells (FIG. 4A(i)). The number of cells represents both cell viability, and the ability of the drug in question to inhibit cellular proliferation.
For BKPyV infections, RPTE/TERT1, RPTE/TERT1-Cas9 or RPTE/TERT1 MAT2A KO cells were infected with BKPyV at either a multiplicity of infection (MOI) of 5 for growth curves or an MOI of 3 or 1 for all other experiments, diluted in appropriate medium. At 1 hour post infection (hpi) medium was removed, cells were washed twice with phosphate-buffered saline (PBS), and fresh medium was added with or without inhibitors. At 24, 48, 72 or 96 hpi cells were either harvested for western blot, RT qPCR or virus titre by FFU assay, or fixed for immunofluorescence analysis.
For fluorescence intensity analysis, 20 fields of view were captured for each experiment. All quantification analyses were carried out using ImageJ and an optimised robust automated detection pipeline Schindelin et al. (Nat Methods. 2012 Jun. 28; 9 (7): 676-82). […] LTAg-staining patterns across each field of view were measured by quantifying the fluorescence intensity using the Mean Grey Value (MGV) function of ImageJ and averaging the results for each experimental condition. Individual cell fluorescence intensity was determined by drawing polygon selections around each LTAg-positive nuclei in ImageJ and measuring the nuclear area, MGV and integrated density, then doing the same for background areas close to each nuclei measured. […]

The test system of the next test is Zika American Strain. Kind of test: Western blot of Zika E protein in VERO E6 cells, American strain. The format is cell-based, Zika virus. The following applies: 20 μM, MOI >10, 48 hrs. How it is done:
(B) Zika: VERO E6 cells were plated. The following day 20 μM PF-9366 or DMSO control was added to media. After 3 hrs cells were infected with Zika African strain, American Strain or Mock infected (MOI >10). After 48 hrs cells were harvested by scraping, pelleted and lysed into lysis buffer. Western blot was then conducted on the lysed cells. Protein embedded SDS-PAGE gels were transferred to membranes overnight and then probed for Zika E protein and GAPDH as a control.
For Flavivirus infections VERO E6 cells were infected with either African (Afn) or American (Amer) Zika at a multiplicity of infection (MOI) greater than 10, diluted in appropriate medium. At 1 hour post infection (hpi) medium was removed, cells were washed twice with phosphate-buffered saline (PBS), and fresh medium was added. At 48 hpi cells were either harvested for western blot.
Cell lysate preparation and western blots were performed as described in Ren et al. (J Gen Virol. 2012 February; 93 (Pt 2): 319-329). Primary antibodies used were ab53977 (VP1), PAb416 (LTAg), sc-166452 (MAT2A/1A), ab110226 (VP16), sc-53070 (ICP0), anti-Zika E Protein, and either anti-GAPDH or anti-tubulin as a loading control, followed by IRDye 680LT-, or IRDye 800CW-conjugated secondary antibodies. Imaging was performed using the LI-COR Odyssey Infrared Imaging system. Quantification was performed using LI-COR Image Studio Software. […]
In general terms: In western blotting, separated proteins are transferred to a membrane and probed.

Test [1] deals with Semliki Forest Virus 4 (SFV4). Kind of test: SFV4 titre by plaque assay (BHK-21 cells infected, titrated on BSR cells). The following applies: 2 μM, MOI >10, 24 hrs, initial tests. The format is cell-based. As to the method: (A) SINV and SFV4: BHK-21 cells were plated. The following day 2 μM PF-9366 or DMSO control was added to media. After 3 hrs cells were infected with SINV or SFV4 (MOI >10). After 24 hrs cells were harvested by scraping. Cells were either pelleted for western blot or freeze/thawed for titration. To titre: BSR cells were plated and the following day infected with 10-fold dilutions, at 1 hpi cells were overlayed with LMA in 2×MEM (+5% FCS). At 72 hpi cells were fixed and stained with toluidine blue.
For Alphavirus infections BHK-21 cells were infected with either SINV or SFV-4 at a multiplicity of infection (MOI) greater than 10, diluted in appropriate medium. At 1 hour post infection (hpi) medium was removed, cells were washed twice with phosphate-buffered saline (PBS), and fresh medium was added. At 24 hpi supernatants were harvested for virus titre by plaque assay.
For SINV and SFV4, confluent BSR cell monolayers were infected with 10-fold dilutions of samples. At 1 hpi cells were overlayed with low melting-point agarose in 2×MEM (+5% FCS). Cells were fixed at 72 hpi and stained with toluidine blue, allowing plaques to be counted.
TSG101 inhibitor Ilaprazole (Sigma-Aldrich) was diluted in 100% DMSO. […]

On to `COc1ccc(-c2c(Nc3ccccn3)[nH]c3c(C4=CCCCC4)c(-c4ccccc4)nn3c2=O)cc1` [AG-270], for which, in the test on BKPyV, the “early gene (LTAg) expression, LTAg positive cells as a proportion of DAPI-positive cells” value is “reduced” and the “late gene (VP1) expression, VP1 positive cells as a proportion of DAPI-positive cells” value is “reduced”.

For the molecule `CN(C)CCc1nnc2cc(-c3ccccc3)c3cc(Cl)ccc3n12` [PF-9366], the “reduction in LTAg positive cells” value in the test on BKPyV (40 μM, BKPyV MOI 1, normalised to untreated control) was about 95%. Besides, the “number of LTAg positive cells” value in the test with BKPyV (PF-9366 concentrations of 5 μM and above, BKPyV MOI 1, treatment from 3 h prior to infection) was “significantly reduced”. Moreover, in the test with BKPyV, the “early gene (LTAg) expression, LTAg positive cells as a proportion of DAPI-positive cells” value was “reduced” and the “late gene (VP1) expression, VP1 positive cells as a proportion of DAPI-positive cells” value was “reduced”. Besides, the “viral protein expression (Zika E protein), American strain” value with Zika American Strain is “reduction”. In addition, in test [1], the “reduction in viral titre (SFV4)” value is 7-10 fold.
